Values joined by “and” are separate entries in the source; they are usually repeats but may differ in a detail not shown here. Equal values may be shown once.

Experiment [1] deals with Escherichia coli (E. coli - ATCC #10536). The experiment is described as follows: Synergy test: high resolution MBC microtiter plate assay, 15 seconds contact, phosphate buffer containing 35% dipropylene glycol. To be noted: E. coli 10536; for MBC of the component acting alone (QA or QB; Qa with Qb = 0, or Qb with Qa = 0): complete kill in 15 seconds, phosphate buffer with 35% DPG; for SI (Synergy Index = Qa/QA + Qb/QB): for Qa and Qb, less than one = synergy. The class given is cell-based. From the text:
The concentrations and ratios may also vary under different test conditions or with different test methods.
One measure of synergy is the industrially accepted method described by Kull, F. C.; Eisman, P. C.; Sylwestrowicz, H. D. and Mayer, R. L., in Applied Microbiology 9:538-541 (1961), using the ratio determined by the formula: Qa/QA+Qb/QB=Synergy Index (“SI”) wherein: • QA=concentration of compound A (first component) in percent, acting alone, which produced an end point (MBC of Compound A). • Qa=concentration of compound A in percent, in the mixture, which produced an end point. • QB=concentration of compound B (second component) in percent, acting alone, which produced an end point (MBC of Compound B). • Qb=concentration of compound B in percent, in the mixture, which produced an end point.
When the sum Qa/QA and Qb/QB is greater than one, antagonism is indicated. […] The lower the SI, the greater is the synergy shown by that particular mixture. The minimum biocidal concentration (MBC) of a microbicide is the lowest concentration tested under a specific set of conditions that provides complete kill of the tested microorganisms.
Synergy tests were conducted using standard microliter plate assays with phosphate buffer containing 35% dipropylene glycol (DPG). In this method, a wide range of combinations of chemicals was tested by conducting high resolution MBC assays of Component (A) in the presence of various concentrations of Component (B). High resolution MBCs were determined by adding varying amounts of microbicide to one column of a microliter plate and doing subsequent […] dilutions using an automated liquid handling system to obtain a series of closely spaced endpoints. The MBC plate was inoculated one column at a time with the test microorganism. An aliquot of the inoculated well was transferred at 15 seconds to a plate containing a neutralising agent (D/E Neutralising Broth), mixed and held for 5 minutes before being transferred to a growth plate-containing trypticase soy broth (TSB). The TSB plate was incubated at 37° C. and read for the presence/absence of growth at 24 hours. The lowest level tested that provided complete kill (as evidenced by no growth in the microtitre plate) of the test organisms in 15 seconds is the minimum biocidal concentration (MBC).
The synergy of the combinations of the present invention was determined against a bacterium, Escherichia coli (E. coli—ATCC #10536), at a concentration of approximately 1×10^8 bacteria per mL. This microorganism is representative of natural contaminants in many consumer and industrial applications.

The test system is the same in experiment [2]. The experiment is described as follows: Automated assessment of efficacy in model surfactant solution (2.85% sodium cocoyl glycinate + 1.85% sodium lauroamphoacetate, pH 10), 15 seconds exposure. The class given is cell-based. Conditions: for MBC (% w/v) / MBC: 2.85% sodium cocoyl glycinate + 1.85% sodium lauroamphoacetate solution at pH 10, E. coli, component alone; for No. of replicates showing growth (out of 4) / ΔOD 450 nm = OD450 (time = 16 hours) − OD450 (time zero), Mean / ΔOD 590 nm = OD590 (time = 16 hours) − OD590 (time zero), Mean: model surfactant solution, pH 10, 15 s exposure; for MBC: Escherichia coli, ATCC10536, 15 s. The protocol:
In these examples, the efficacy of combinations of actives were tested in a surfactant cleansing formulation comprising 2.85% sodium cocoyl glycinate and 1.85% sodium, lauroamphoacetate.
This corresponds to a 50% in use dilution with water of a neat formulation containing 5.7% cocoyl glycinate and 3.7% sodium lauroamphoacetate during hand washing.
Solutions were prepared such that the concentrations of the surfactant components and test actives were 1.1× the final desired concentration in order to allow for dilution with the bacterial inoculum in the test. The solutions were manually adjusted to pH 10.0 by dropwise addition of sodium hydroxide solution, as measured with a pH meter at ambient temperature.
The efficacy of the combinations of the present invention was determined against Escherichia coli (E. coli—ATCC #10536), at a concentration of approximately 1×10^8 bacteria per mL.
Tests were conducted using standard microliter plate assays using an automated liquid handling system. 270 μl of the surfactant test solution was pipetted into each well of the microtitre plate and 30 μl of the bacterial suspension was then added. After exactly 15 seconds of bacterial exposure, a 30 μl volume of bacterial cells was withdrawn and transferred to 270 μl of D/E quench solution. After 5 minutes in the D/E quench, the optical density (OD) was measured for each plate in turn at two specific wavelengths (450 nm and 590 nm). These provide a dual check of antimicrobial, activity, as the OD450 reading is specific for the yellow colour of D/E quench when bacterial growth is observed, whereas OD590 is specific for the initial purple colour of the D/E quench which is retained if no bacterial growth is observed. After the time zero OD measurements, plates were then incubated at 37° C. overnight (16 hours) before repeating the OD measurements, Delta OD values were calculated by subtracting […] the initial value at time zero. Bacterial growth is observed as an increase in OD450 and a decrease in ΔOD590. To identify antibacterially efficacious systems (those preventing appreciable bacterial growth after incubation), the following threshold changes in OD readings have been adopted: if (1). OD450 increases by less than 0.2 absorbance unit on incubation and (2). OD590 decreases by less than 0.35 unit on incubation. Conversely, where OD450 increases by more than 0.2 AU and OD590 decreases by more than 0.35 unit after incubation, corresponding to a colour shift from purple to yellow, the test system allows bacterial growth and is not deemed efficacious. Four replicate measurements in the same plate have been made for each test system. The number of replicate wells showing either bacterial growth or no growth is also readily assessed by eye by following the colour change.

A further experiment deals with S. aureus 6538. In words: Antimicrobial efficacy of actives against S. aureus in water. The class given is cell-based, Staphylococcus aureus.
Where [3] appears, read: single active alone at 0.1% w/v.
[4] abbreviates: single active alone at 0.2% w/v.
Setting [5] is: single active alone at 0.5% w/v.
Where [6] appears, read: single active alone at 0.175% w/v.

Turning to `Oc1cccc2c1CCCC2` [5,6,7,8-tetrahydronaphthalen-1-ol], in experiment [1], the “MBC of the component acting alone (QA or QB; Qa with Qb = 0, or Qb with Qa = 0)” value (from here on “MBC of the component acting alone”) amounted to 0.6 weight %.

For `Oc1ccccc1Cc1ccccc1` [2-hydroxydiphenylmethane], in experiment [1], the “MBC of the component acting alone” value is 0.8 weight % and 0.6 weight % and 1.0 weight % and 0.5 weight %; the “SI (Synergy Index = Qa/QA + Qb/QB)” value is 1.00. Further, the “MBC (% w/v)” value in experiment [2] is >0.2 % w/v. In addition, in experiment [2] (setting [3]), the “No. of replicates showing growth (out of 4)” value is on record as 4; the “ΔOD 450 nm = OD450 (time = 16 hours) − OD450 (time zero), Mean” value (from here on “ΔOD 450 nm = OD450”) is reported as −0.51; the “ΔOD 590 nm = OD590 (time = 16 hours) − OD590 (time zero), Mean” value (shortened to “ΔOD 590 nm = OD590”) is recorded as 0.62. Further, in experiment [2] (setting [4]), the “No. of replicates showing growth (out of 4)” value stood at 4; the “ΔOD 450 nm = OD450” value is −0.51; the “ΔOD 590 nm = OD590” value amounted to 0.63. Also, in experiment [2] (single active alone at […] w/v), the “No. of replicates showing growth (out of 4)” value amounted to 4; the “ΔOD 450 nm = OD450” value was −0.49; the “ΔOD 590 nm = OD590” value turned out to be 0.64.

Consider `Cc1ccc(C(C)C)c(O)c1O` [3-isopropyl-6-methylbenzene-1,2-diol], for which the MBC in experiment [2] is > 2000 µg/mL.

Consider `CC(C)(C)c1ccc(O)c(O)c1` [4-tert-butylbenzene-1,2-diol], for which the MBC in experiment [2] was > 2000 µg/mL.

For `C=C(C)C1CCC(C)CC1O` (centres unmarked) [Isopulegol, 5-methyl-2-(prop-1-en-2-yl)cyclohexanol], the “ΔOD 450 nm = OD450” value in experiment [2] (setting [5]) is given as −0.09. Also, in experiment [2] (single active alone at […] w/v), the “No. of replicates showing growth (out of 4)” value is given as 4 and the “ΔOD 590 nm = OD590” value is 0.64.

As for `Cc1cc(O)c(C(C)C)cc1Cl` [4-chloro-2-isopropyl-5-methylphenol, reference compound], the “No. of replicates showing growth (out of 4)” value in experiment [2] (setting [6]), in experiment [2] (setting [4]) and in experiment [2] (single active alone at […] w/v) was 4 each time. Also, the “ΔOD 450 nm = OD450” value in experiment [2] (setting [6]) was −0.49; in experiment [2] (setting [4]) it was −0.51; in experiment [2] (single active alone at […] w/v) it was −0.49. Moreover, the “ΔOD 590 nm = OD590” value was 0.58 in experiment [2] (setting [6]), 0.60 in experiment [2] (setting [4]) and 0.59 in experiment [2] (single active alone at […] w/v).

For `Oc1ccccc1C1CCCC1` [2-cyclopentylphenol], in experiment [1], the “SI (Synergy Index = Qa/QA + Qb/QB)” value was 1.00.

In the case of `C=C(C)[C@@H]1CC[C@@H](C)C[C@H]1O` [(1R,2S,5R)-5-methyl-2-(prop-1-en-2-yl)cyclohexanol], the “SI (Synergy Index = Qa/QA + Qb/QB)” value in experiment [1] came out at 1.00.

As to cyclopentyl phenol, the “Log Reduction” value with S. aureus 6538 (0.05% cyclopentyl phenol) amounted to 1.9.

On to `C=C(C)C1CCC(C)C(O)C1` (centres unmarked) [2-methyl-5-(prop-1-en-2-yl)cyclohexanol], for which the “SI (Synergy Index = Qa/QA + Qb/QB)” value in experiment [1] is listed as 1.00. In experiment [2] (setting [4]), the “No. of replicates showing growth (out of 4)” value worked out at 4; the “ΔOD 450 nm = OD450” value is on record as −0.49; the “ΔOD 590 nm = OD590” value is recorded as 0.63. For the same compound, in experiment [2] (single active alone at […] w/v), the “No. of replicates showing growth (out of 4)” value stood at 4; the “ΔOD 450 nm = OD450” value is listed as −0.43; the “ΔOD 590 nm = OD590” value amounted to 0.66.

Take `C=C(C)C1CC=C(C)C(O)C1` (centres unmarked) [2-methyl-5-(prop-1-en-2-yl)cyclohex-2-enol]: the “Log Reduction” value in the experiment with S. aureus 6538 ([…] carveol) stood at 0.08. Besides, in experiment [1], the “SI (Synergy Index = Qa/QA + Qb/QB)” value was determined as 1.0. Besides, in experiment [2] (setting [5]), the “No. of replicates showing growth (out of 4)” value amounted to 0; the “ΔOD 450 nm = OD450” value turned out to be 0.23; the “ΔOD 590 nm = OD590” value is given as 0.20. The “No. of replicates showing growth (out of 4)” value in experiment [2] (single active alone at […] w/v) amounted to 4.

Consider `Oc1ccc(C2CCCC2)cc1` [4-cyclopentylphenol], for which the “SI (Synergy Index = Qa/QA + Qb/QB)” value in experiment [1] is 1.00.

Consider `Oc1ccc(Cc2ccccc2)cc1` [4-hydroxydiphenylmethane], for which, in experiment [1], the “MBC of the component acting alone” value was 1.0 weight % and 0.6 weight %; the “SI (Synergy Index = Qa/QA + Qb/QB)” value is 1.00. For the same compound, the “MBC (% w/v)” value in experiment [2] is >0.2 % w/v. In addition, in experiment [2] (setting [3]), the “No. of replicates showing growth (out of 4)” value is reported as 4; the “ΔOD 450 nm = OD450” value was −0.58; the “ΔOD 590 nm = OD590” value came out at 0.52. In experiment [2] (setting [4]), the “No. of replicates showing growth (out of 4)” value is listed as 4; the “ΔOD 450 nm = OD450” value is given as −0.52; the “ΔOD 590 nm = OD590” value is 0.61. In addition, in experiment [2] (single active alone at […] w/v), the “No. of replicates showing growth (out of 4)” value is given as 4; the “ΔOD 450 nm = OD450” value is reported as −0.55; the “ΔOD 590 nm = OD590” value was determined as 0.54.

Values taken from US9832995B2, “Microbial composition” (Rohm and Haas Company, priority 2011, dated 2017).
